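Compound exposure: 48 hours, 5 concentrations, 96-well plates. GI50 = concentration required for 50% inhibition of growth. TGI: concentration producing complete growth inhibition.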
Tests used:
Assay in all cases: DTP human tumour cell line panel, 48 h
OVCAR-8 ovarian = tested on: OVCAR-8 ovarian
MDA-MB-435 = tested on: MDA-MB-435
MCF7 breast = tested on: MCF7 breast
A498 renal = tested on: A498 renal
CCRF-CEM leukemia = tested on: CCRF-CEM leukemia
HOP-92 NSCLC = tested on: HOP-92 NSCLC
RXF 393 renal = tested on: RXF 393 renal
HCT-116 colon = tested on: HCT-116 colon
HL-60(TB) leukemia = tested on: HL-60(TB) leukemia
TK-10 renal = tested on: TK-10 renal
HT29 colon = tested on: HT29 colon
OVCAR-3 ovarian = tested on: OVCAR-3 ovarian
RPMI-8226 leukemia = tested on: RPMI-8226 leukemia
BT-549 breast = tested on: BT-549 breast
OVCAR-4 ovarian = tested on: OVCAR-4 ovarian
HCC-2998 colon = tested on: HCC-2998 colon
SF-268 CNS = tested on: SF-268 CNS
UACC-257 melanoma = tested on: UACC-257 melanoma
ACHN renal = tested on: ACHN renal
HCT-15 colon = tested on: HCT-15 colon
SK-MEL-28 melanoma = tested on: SK-MEL-28 melanoma
NCI-H460 lung = tested on: NCI-H460 lung
KM12 colon = tested on: KM12 colon
SK-OV-3 ovarian = tested on: SK-OV-3 ovarian
OVCAR-5 ovarian = tested on: OVCAR-5 ovarian
IGROV1 ovarian = tested on: IGROV1 ovarian
NCI-H226 lung = tested on: NCI-H226 lung
COLO 205 colon = tested on: COLO 205 colon
MOLT-4 leukemia = tested on: MOLT-4 leukemia
HS 578T breast = tested on: HS 578T breast
SK-MEL-5 melanoma = tested on: SK-MEL-5 melanoma
SW-620 colon = tested on: SW-620 colon
SR leukemia = tested on: SR leukemia
MDA-MB-468 breast = tested on: MDA-MB-468 breast
NCI-H522 lung = tested on: NCI-H522 lung
UACC-62 melanoma = tested on: UACC-62 melanoma
LOX IMVI melanoma = tested on: LOX IMVI melanoma
M14 melanoma = tested on: M14 melanoma
SNB-19 CNS = tested on: SNB-19 CNS
EKVX NSCLC = tested on: EKVX NSCLC
SN12C renal = tested on: SN12C renal
T-47D breast = tested on: T-47D breast
DU-145 prostate = tested on: DU-145 prostate
786-0 renal = tested on: 786-0 renal
CAKI-1 renal = tested on: CAKI-1 renal
NCI/ADR-RES ovarian = tested on: NCI/ADR-RES ovarian
MALME-3M melanoma = tested on: MALME-3M melanoma
SF-295 CNS = tested on: SF-295 CNS
SF-539 CNS = tested on: SF-539 CNS
K-562 leukemia = tested on: K-562 leukemia
NCI-H23 lung = tested on: NCI-H23 lung
A549 NSCLC = tested on: A549 NSCLC
U251 CNS = tested on: U251 CNS
HOP-62 NSCLC = tested on: HOP-62 NSCLC
PC-3 prostate = tested on: PC-3 prostate

Work on `c1n[nH]cc1-c1nc2ccc3[nH]ncc3c2c2c1CC1(CC2)COC1` yielded a GI50 (OVCAR-8 ovarian) of 16.3 µM, a TGI (OVCAR-8 ovarian) of 35.5 µM and a GI50 (MDA-MB-435) of 14.4 µM. For the same molecule, the TGI (MDA-MB-435) was 32.4 µM, the GI50 (MCF7 breast) was 20.4 µM and the TGI (MCF7 breast) was 69.5 µM. The GI50 (A498 renal) was 15 µM, the TGI (A498 renal) was 30.9 µM and the GI50 (CCRF-CEM leukemia) was 29.9 µM. The TGI (CCRF-CEM leukemia) was over 100 µM, the GI50 (HOP-92 NSCLC) was 23.1 µM and the TGI (HOP-92 NSCLC) was 63.1 µM. For the same molecule, the GI50 (RXF 393 renal) was 4.52 µM, the TGI (RXF 393 renal) was 17.6 µM and the GI50 (HCT-116 colon) was 6.02 µM. The TGI (HCT-116 colon) was 37.7 µM, the GI50 (HL-60(TB) leukemia) was 13.6 µM and the TGI (HL-60(TB) leukemia) was 39.3 µM. The GI50 (TK-10 renal) was 15 µM, the TGI (TK-10 renal) was 67.6 µM and the GI50 (HT29 colon) was 26.3 µM. It also gave a TGI (HT29 colon) of over 100 µM, a GI50 (OVCAR-3 ovarian) of 13.7 µM and a TGI (OVCAR-3 ovarian) of 59.2 µM. It also gave a GI50 (RPMI-8226 leukemia) of 21.3 µM, a TGI (RPMI-8226 leukemia) of 68 µM and a GI50 (BT-549 breast) of 4.09 µM. It also gave a TGI (BT-549 breast) of 16.6 µM, a GI50 (OVCAR-4 ovarian) of 25 µM and a TGI (OVCAR-4 ovarian) of 70.4 µM. It also gave a GI50 (HCC-2998 colon) of 15.5 µM, a TGI (HCC-2998 colon) of 40.6 µM and a GI50 (SF-268 CNS) of 16.2 µM. For the same molecule, the TGI (SF-268 CNS) was 40.2 µM, the GI50 (UACC-257 melanoma) was 17 µM and the TGI (UACC-257 melanoma) was 39 µM. It also gave a GI50 (ACHN renal) of 16.8 µM, a TGI (ACHN renal) of over 100 µM and a GI50 (HCT-15 colon) of 23.2 µM. It also gave a TGI (HCT-15 colon) of over 100 µM, a GI50 (SK-MEL-28 melanoma) of 12.9 µM and a TGI (SK-MEL-28 melanoma) of 27.7 µM. It also gave a GI50 (NCI-H460 lung) of 17.1 µM, a TGI (NCI-H460 lung) of 35.9 µM and a GI50 (KM12 colon) of 22.3 µM. It also gave a TGI (KM12 colon) of 51.8 µM, a GI50 (SK-OV-3 ovarian) of 5.9 µM and a TGI (SK-OV-3 ovarian) of 34.3 µM. For the same molecule, the GI50 (OVCAR-5 ovarian) was 25.6 µM, the TGI (OVCAR-5 ovarian) was 77.7 µM and the GI50 (IGROV1 ovarian) was 19.3 µM. It also gave a TGI (IGROV1 ovarian) of 57.3 µM, a GI50 (NCI-H226 lung) of 16 µM and a TGI (NCI-H226 lung) of 37.1 µM. It also gave a GI50 (COLO 205 colon) of 6.13 µM, a TGI (COLO 205 colon) of 21.2 µM and a GI50 (MOLT-4 leukemia) of 15.5 µM. The TGI (MOLT-4 leukemia) was 48.2 µM, the GI50 (HS 578T breast) was 8.53 µM and the TGI (HS 578T breast) was 39.3 µM. The GI50 (SK-MEL-5 melanoma) was 16.3 µM, the TGI (SK-MEL-5 melanoma) was 30.1 µM and the GI50 (SW-620 colon) was 4.98 µM. For the same molecule, the TGI (SW-620 colon) was 52.6 µM, the GI50 (SR leukemia) was 3.36 µM and the TGI (SR leukemia) was 16.9 µM. For the same molecule, the GI50 (MDA-MB-468 breast) was 3.53 µM, the TGI (MDA-MB-468 breast) was 13 µM and the GI50 (NCI-H522 lung) was 3.43 µM. It also gave a TGI (NCI-H522 lung) of 17.1 µM, a GI50 (UACC-62 melanoma) of 5.76 µM and a TGI (UACC-62 melanoma) of 18.7 µM. It also gave a GI50 (LOX IMVI melanoma) of 11.3 µM, a TGI (LOX IMVI melanoma) of 24.6 µM and a GI50 (M14 melanoma) of 12.9 µM. For the same molecule, the TGI (M14 melanoma) was 28 µM, the GI50 (SNB-19 CNS) was 17.3 µM and the TGI (SNB-19 CNS) was 68.1 µM. It also gave a GI50 (EKVX NSCLC) of 22.4 µM, a TGI (EKVX NSCLC) of 83.6 µM and a GI50 (SN12C renal) of 13.9 µM. The TGI (SN12C renal) was 38 µM, the GI50 (T-47D breast) was 12.7 µM and the TGI (T-47D breast) was 57.3 µM. The GI50 (DU-145 prostate) was 26.2 µM, the TGI (DU-145 prostate) was 95.5 µM and the GI50 (786-0 renal) was 13.4 µM. For the same molecule, the TGI (786-0 renal) was 32.7 µM, the GI50 (CAKI-1 renal) was 19.2 µM and the TGI (CAKI-1 renal) was 86.5 µM. It also gave a GI50 (NCI/ADR-RES ovarian) of over 100 µM, a TGI (NCI/ADR-RES ovarian) of over 100 µM and a GI50 (MALME-3M melanoma) of 15.7 µM. It also gave a TGI (MALME-3M melanoma) of 30.1 µM, a GI50 (SF-295 CNS) of 23.4 µM and a TGI (SF-295 CNS) of 58.4 µM. For the same molecule, the GI50 (SF-539 CNS) was 12.2 µM, the TGI (SF-539 CNS) was 25.5 µM and the GI50 (K-562 leukemia) was 13.7 µM. It also gave a TGI (K-562 leukemia) of over 100 µM, a GI50 (NCI-H23 lung) of 15.1 µM and a TGI (NCI-H23 lung) of 32.7 µM. It also gave a GI50 (A549 NSCLC) of 27.8 µM, a TGI (A549 NSCLC) of over 100 µM and a GI50 (U251 CNS) of 17.7 µM. The TGI (U251 CNS) was over 100 µM, the GI50 (HOP-62 NSCLC) was 18.2 µM and the TGI (HOP-62 NSCLC) was 47.3 µM. It also gave a GI50 (PC-3 prostate) of 26.5 µM and a TGI (PC-3 prostate) of over 100 µM.

— PubChem BioAssay (NCI)
